Test results published in US12102689B2, “Anti-CD22 antibody-maytansine conjugates and methods of use thereof” (R.P. Scherer Technologies, LLC, priority 2015, dated 2024).

What was measured:
Assay type in all cases: cell-based
Ramos cells = experiment: In vitro cytotoxicity (Cell Titer-Glo, 5 d); conditions: Homo sapiens, 120 h
Procedure: (§1) The CD22-positive B-cell lymphoma cell lines, Ramos and WSU-DLCL2, were obtained from the ATCC and DSMZ cell banks, respectively. The cells were maintained in RPMI-1640 medium (Cellgro, Manassas, VA) supplemented with 10% fetal bovine serum (Invitrogen, Grand Island, NY) and Glutamax (Invitrogen). 24 h prior to plating, cells were passaged to ensure log-phase growth. On the day of plating, 5000 cells/well were seeded onto 96-well plates in 90 μL normal growth medium supplemented with 10 IU penicillin and 10 μg/mL streptomycin (Cellgro). Cells were treated at various concentrations with 10 μL of diluted analytes, and the plates were incubated at 37° C. in an atmosphere of 5% CO2. After 5 d, 100 μL/well of Cell Titer-Glo reagent (Promega, Madison, WI) was added, and luminescence was measured using a Molecular Devices SpectraMax M5 plate reader. GraphPad Prism software was used for data analysis.

WSU-DLCL2 cells = experiment: In vitro cytotoxicity (Cell Titer-Glo, 5 d); conditions: Homo sapiens, WSUDLCL2, 120 h
Procedure: as §1

MDR1+ Ramos cells = experiment: In vitro cytotoxicity assay on MDR1-expressing cells; conditions: MDR1+ Ramos vs wild-type
Procedure: (§2) MDR1 (ABCB1) cDNA was obtained from Sino Biological and cloned into a pEF plasmid with a hygromycin selection marker. An AMAXA Nucleofector™ instrument was used to electroporate Ramos (ATCC CRL-1923) and WSU-DLCL2 (DSMZ ACC 575) cells according to the manufacturer's instructions. After selection with hygromycin (Invitrogen 10687010), the pools were enriched with paclitaxel treatment (25 nM for up to 10 days) to further select cells with functional MDR1. The resulting cells were maintained under hygromycin selection in RPMI (Gibco 21870-092) supplemented with 10% fetal bovine serum (FBS) and 1× GlutaMax (Gibco 35050-079).
(§3) Cell lines were plated in 96-well plates (Costar 3610) at a density of 5×10^4 cells/well in 100 μL of growth media and allowed to rest for 5 h. Serial dilution of test samples was performed in RPMI at 6× the final concentration and 20 μL was added to the cells. After incubation at 37° C. with 5% CO2 for 5 days, viability was measured using a Promega CellTiter 96® AQueous One Solution Cell Proliferation Assay (G3581) according to the manufacturer's instructions. GI50 curves were calculated in GraphPad Prism using the ADC's drug-to-antibody ratio (DAR) value to normalize the dose to the payload concentration.

MDR1+ WSU-DLCL2 cells = experiment: as above
Procedure: as §2, §3

Q: Which IC50 (Ramos cells) does the source give for `COc1cc2cc(c1Cl)N(C)C(=O)C[C@H](OC(=O)[C@H](C)N(C)C(C)=O)[C@]1(C)O[C@H]1[C@H](C)[C@@H]1C[C@@](O)(NC(=O)O1)[C@H](OC)/C=C/C=C(\C)C2` [free maytansine, maytansine] here?
A: 0.04 nM

Q: What about the IC50 (WSU-DLCL2 cells) of the same molecule?
A: 0.086 nM

Q: And the “fold less efficacious in MDR1-expressing cells” value (MDR1+ Ramos cells)?
A: ~10 fold

Q: And the “potency on cotreatment with cyclosporin (MDR1 inhibitor)” value (MDR1+ WSU-DLCL2 cells; MDR1+ WSU-DLCL2 cells plus cyclosporin)?
A: restored the original potency

Q: And the “fold less efficacious in MDR1-expressing cells” value (MDR1+ WSU-DLCL2 cells; MDR1+ WSU-DLCL2 vs wild-type)?
A: ~10 fold
